Where two headings read alike, the source gives them in different places.

Experiment [1] has as its system liver injury induced by D-galactosamine. The experiment can be described thus: Experimental Example 1b: effect on liver injury induced by D-galactosamine in rats (group I-b). In kind it is in vivo, male Fischer (F344) rats. Conditions: Rattus norvegicus, po, 48 h, Table 1b, D-galactosamine 400 mg/kg; for inhibition in vivo at 100 mg/kg: compound 100 mg/kg in 0.5% methylcellulose; for inhibition in vivo at 50 mg/kg: values marked *: administration of 50 mg/kg.

For experiment [2] the test system is unchanged. The experiment can be described thus: Experimental Example 1d: effect on liver injury induced by D-galactosamine in rats (group I-d). Type of experiment: in vivo, male Fischer (F344) rats. Conditions: Rattus norvegicus, Table 1d, D-galactosamine 300 mg/kg s.c., compound 50 mg/kg oral in distilled water or 0.5% methylcellulose, 48 h. The method, then: 300 mg/kg of D-galactosamine was administered to male Fischer (F344) rats weighing around 180 g by subcutaneous injection to induce liver injury. Each compound was dissolved in distilled water was given by oral administration in a dose of 50 mg/kg one hour after the injection of D-galactosamine.
The D-galactosamine was used in the form of a solution having a concentration of 200 mg/ml, obtained by dissolving D-galactosamine in a physiological saline solution to obtain a dilute D-galactosamine solution and adjusting the pH of the dilute solution to 7.0 with 10N aqueous potassium hydroxide.
Blood was collected from the rat's tail vein 48 h after the injection of D-galactosamine. The blood coagulation time was determined by the hepaplastin test (HPT) and GPT activity in the blood plasma was determined by an enzymatic method.

Setting [3] is: read-out: Inhibition ratio (%) GPT.
Where [4] appears, read: read-out: Inhibition ratio (%) HPT.

For `[O-][S+](CCO)CCc1ccc2c(c1)OCO2` (stereo not drawn) [Compound 27], the inhibition in vivo at 100 mg/kg is 54% in experiment [1] (setting [3]) and 65% in experiment [1] (setting [4]).

Take `COCCSCCc1ccc2c(c1)OCO2` [Compound 6]: the inhibition in vivo at 100 mg/kg amounted to 79% in experiment [1] (setting [3]) and 93% in experiment [1] (setting [4]).

With `CCS(=O)(=O)CCc1ccc2c(c1)OCO2` [Compound 35], the results for the inhibition in vivo at 50 mg/kg in experiment [2] (setting [3]) and in experiment [2] (setting [4]) were 76% and 60%, respectively.

For the compound `N#CC[S+]([O-])CCc1ccc2c(c1)OCO2` (stereo not drawn) [Compound 33], the inhibition in vivo at 50 mg/kg was found to be 82% in experiment [2] (setting [3]) and 78% in experiment [2] (setting [4]).

As to `OCCSCCc1ccc2c(c1)OCO2` [Compound 3], the inhibition in vivo at 100 mg/kg was found to be 97% in experiment [1] (setting [3]) and 94% in experiment [1] (setting [4]).

With `CCC(Cc1ccc2c(c1)OCO2)SCC(=O)O` (stereo not drawn) [Example 26, Sodium [[1-{(1,3-benzodioxol-5-yl)methyl}propyl]thio]acetate], the inhibition in vivo at 50 mg/kg is 53% in experiment [2] (setting [3]) and 48% in experiment [2] (setting [4]).

Take `CC(=O)CS(=O)(=O)CCc1ccc2c(c1)OCO2` [Compound 34]: the figures for the inhibition in vivo at 50 mg/kg in experiment [2] (setting [3]) and in experiment [2] (setting [4]) were 37% and 17%, respectively.

On to `c1ccc(CSCCc2ccc3c(c2)OCO3)nc1` [Example 7, 2-(1,3-Benzodioxol-5-yl)ethyl (pyridin-2-yl)methyl sulfide], for which the inhibition in vivo at 50 mg/kg in experiment [2] (setting [3]) was determined as 37%; in experiment [2] (setting [4]), 58%.

As to `CC1Oc2ccc(CCSCC(=O)O)cc2O1` (stereo not drawn) [Example 12, Sodium [{2-(2-methyl-1,3-benzodioxol-5-yl)ethyl}-thio]acetate], the inhibition in vivo at 50 mg/kg in experiment [2] (setting [3]) and in experiment [2] (setting [4]) was 85% in each case.

As to `N#CCS(=O)(=O)CCc1ccc2c(c1)OCO2` [Compound 37], the inhibition in vivo at 50 mg/kg in experiment [2] (setting [3]) is 52%; in experiment [2] (setting [4]), 44%.

Take `N#CCSCCc1ccc2c(c1)OCO2` [Example 2, [{2-(1,3-Benzodioxol-5-yl)ethyl}thio]acetonitrile]: the inhibition in vivo at 50 mg/kg amounted to 88% in experiment [2] (setting [3]) and 100% in experiment [2] (setting [4]).

Take `CN(C)C(=O)CCSCCc1ccc2c(c1)OCO2` [Compound 19]: the inhibition in vivo at 100 mg/kg in experiment [1] (setting [3]) was determined as 69%; in experiment [1] (setting [4]), 90%.

In the case of `c1cc(CSCCc2ccc3c(c2)OCO3)ccn1` [Example 6, 2-(1,3-Benzodioxol-5-yl)ethyl (pyridin-4-yl)methyl sulfide], the results for the inhibition in vivo at 50 mg/kg in experiment [2] (setting [3]) and in experiment [2] (setting [4]) were 64% and 76%, respectively.

With `Cc1cc2c(cc1CCSCC(=O)O)OCO2` [Compound 16], the inhibition in vivo at 50 mg/kg in experiment [2] (setting [3]) was 25%; in experiment [2] (setting [4]), 41%.

Take `CC(C)(SCCc1ccc2c(c1)OCO2)C(=O)O` [Example 4, Sodium 2-methyl-2-[{2-(1,3-benzodioxol-5-yl)ethyl}thio]propionate]: the inhibition in vivo at 50 mg/kg in experiment [2] (setting [3]) was 84%; in experiment [2] (setting [4]) it was 91%.

Turning to `O=C(O)CSCCc1ccc2c(c1)OCO2` [Compound 8, Sodium [{2-(1,3-benzodioxol-5-yl)ethyl}thio]acetate], the inhibition in vivo at 100 mg/kg in experiment [1] (setting [3]) and in experiment [1] (setting [4]) was 97% each time.

For the compound `O=C(O)CNC(=O)CSCCc1ccc2c(c1)OCO2` [Compound 23], the results for the inhibition in vivo at 100 mg/kg in experiment [1] (setting [3]) and in experiment [1] (setting [4]) were 77% and 92%, respectively.

As to `c1ncc(CSCCc2ccc3c(c2)OCO3)[nH]1` [Compound 8], the values for the inhibition in vivo at 50 mg/kg in experiment [2] (setting [3]) and in experiment [2] (setting [4]) were 28% and 61%, respectively.

Consider `N#CC(SCCc1ccc2c(c1)OCO2)C(=O)O` (stereo not drawn) [Compound 28], for which the inhibition in vivo at 50 mg/kg in experiment [2] (setting [3]) was found to be 44%; in experiment [2] (setting [4]), 45%.

For the compound `O=C(O)CCCCCSCCc1ccc2c(c1)OCO2` [Compound 12], the inhibition in vivo at 50 mg/kg in experiment [1] (setting [3]) stood at 69%; in experiment [1] (setting [4]), 75%.

On to `SCCc1ccc2c(c1)OCO2` [Compound 1, 2-(1,3-Benzodioxol-5-yl)ethanethiol], for which the results for the inhibition in vivo at 100 mg/kg in experiment [1] (setting [3]) and in experiment [1] (setting [4]) were 91% and 96%, respectively.

For the origin of these results see patent US5292901A, “Benzodioxole derivatives” (Eisai Co., Ltd., priority 1987, dated 1994).
